Experimental data published in patent US10835533B2, “1 -((3S,4R)-4-(3-fluorophenyl)-1-(2-methoxyethyl)pyrrolidin-3-yl)-3-(4-methyl-3-(2-methylpyrimidin-5-yl)-1-phenyl-1H-pyrazol-5-yl)urea as a TrkA kinase inhibitor” (Array BioPharma Inc., priority 2014, dated 2020).
pIC50: −log10 of the molar value. Marks after values point to notes of the source that are not given here.

Experiments:
[1] = Liver microsomal clearance, mouse; assay type: in vitro ADME; details: pH 7.4; Mouse liver microsomes; 1 mg/mL; 20 minutes
Procedure: (§1) The predicted hepatic clearance (CLh) value was calculated by scaling the in vitro half-life (t1/2) for stability of the compound in liver microsomes (1 mg/mL; 20 minutes) using the physical and physiological scaling factors used to predict intrinsic clearance (CLint) and hepatic clearance (CLhep) listed in Table 2 and employed in the following equations: […]
(§2) where D is the amount of cytochrome P450-related protein per mass of liver, W is the average mass of liver present per weight of animal, C is the liver microsomal concentration, and Q is the species-dependent hepatic blood flow.
(§3) A 100 mM potassium phosphate assay buffer solution (KPB) was prepared as follows. Both KH2PO4 and K2HPO4 were dissolved separately in reagent grade water resulting in final concentrations 100 mM. A 75:25 mixture v/v of K2HPO4:KH2PO4 was prepared and the pH of the solution was adjusted to 7.4 using diluted HCl or diluted NaOH solutions. Stock solutions of Compound 1, Compound 2 and Compound 3 were prepared at 10 mM (active compound) in DMSO. The stock solution was diluted immediately before use to 2.5 μM using the KPB solution to create the working standard. All test compounds were completely soluble in DMSO by visual inspection at room temperature. The NADPH-regenerating solution (NRS) was prepared on the day of analysis by diluting one volume of 17 mg/mL NADP^+ with one volume of 78 mg/mL glucose-6-phosphate (both prepared in KPB, pH 7.4) and 7.9 volumes of 20 mM MgCl2. The final concentrations of NADP^+ and glucose-6-phosphate were 1.7 mg/mL and 7.8 mg/mL, respectively. […]
(§4) All calculations were performed using BioAssay Enterprise. The mean peak area ratios were calculated by averaging the peak area ratios (n=2) of Compound 1, Compound 2, Compound 3, and the internal standard for each sample. Percent remaining was calculated by determining the ratio of the peak area ratio at each time point to the peak area ratio of the time-zero samples. The rate of loss of test compound (km) was determined by linear regression of −ln(f(t)) versus time. […] The t1/2 was determined dividing ln(2) by km. […]

[2] = Predicted human IV clearance (microsomal CLh/correction factor); details: for in vivo/in vitro correction factor: pre-clinical mean correction factor for all species tested; for IV clearance (predicted): predicted from human microsomal CLh and mean pre-clinical correction factor
Procedure: (§5) In Table 1, the predicted human IV clearance values were calculated from compound concentration-versus-time data in plasma collected from pre-clinical species (mouse, rat, dog and monkey) following 1 mg/kg intravenous (IV) doses. Concentrations of compound in plasma were measured by LC-MS (liquid chromatography-mass spectrometry). AUCinf values (Area under the plasma concentration-time curve for a dosing interval from time 0 extrapolated to infinity) for individual Cp/t curves (concentration of the drug in plasma at any time t) were determined using linear-trapezoidal integration and first order extrapolation from terminal points of the Cp/t curves, and clearance (CL) was calculated using Dose/AUCinf.
The in vivo/in vitro correction factor was then determined by dividing the […]. The arithmetic mean of the pre-clinical correction factors for each compound was used to predict the human IV clearance from the measured human microsomal CLh (CLh/correction factor).

[3] = Liver microsomal clearance, dog; assay type: in vitro ADME; details: pH 7.4; Dog liver microsomes; 1 mg/mL; 20 minutes
Procedure: as §1, §2, §3, §4

[4] = IV clearance, 1 mg/kg IV, monkey; assay type: in vivo; details: for in vivo/in vitro correction factor: microsomal CLh divided by IV CL; for clearance: plasma, 1 mg/kg IV
Procedure: as §5

[5] = target: T1, His-tagged recombinant human TrkA (Homo sapiens, UniProt P04629); assay: TrkA LanthaScreen Eu Kinase Binding Assay (Example A); details: assay of Example A; 60-minute incubation at 22° C.; read-out: averaged IC50 value, TrkA binding
T1 construct: 6HIS tagged cytoplasmic domain from Invitrogen, Catalog No. PV3144; purchased Invitrogen PV3144
T1 sequence (P04629 440-796 limits assumed): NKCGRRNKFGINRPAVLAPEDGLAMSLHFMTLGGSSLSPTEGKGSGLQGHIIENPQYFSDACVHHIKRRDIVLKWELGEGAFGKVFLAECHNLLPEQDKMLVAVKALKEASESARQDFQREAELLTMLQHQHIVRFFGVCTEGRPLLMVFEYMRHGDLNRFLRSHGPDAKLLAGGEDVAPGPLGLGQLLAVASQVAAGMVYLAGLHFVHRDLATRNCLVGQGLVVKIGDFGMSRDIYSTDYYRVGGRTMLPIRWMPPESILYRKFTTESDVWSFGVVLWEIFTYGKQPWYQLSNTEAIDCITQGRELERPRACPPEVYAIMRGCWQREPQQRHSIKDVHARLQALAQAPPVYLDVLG
Procedure: TrkA binding activity was determined in a TrkA LanthaScreen™ Eu Kinase Binding Assay. 5 nM His-tagged recombinant human TrkA (6HIS tagged cytoplasmic domain from Invitrogen, Catalog No. PV3144) was incubated with 4 nM Alexa-Fluor® Tracer 236 (Invitrogen Catalog No. PV5592), 2 nM biotinylated anti-His (Invitrogen Cat. No. PV6090), and 2 nM europium-labeled Streptavidin (Invitrogen Cat. No. PV5899), in buffer (25 mM MOPS, pH 7.5, 5 mM MgCl2, 0.005% Triton X-100). Three fold serial dilutions of Compound 1, compound 2 or compound 3 in DMSO were added to a final percentage of 2% DMSO. After 60-minute incubation at 22° C., the reaction was measured using the EnVision mutlimode plate reader (PerkinElmer) via TR-FRET dual wavelength detection at […]. The percent of control was calculated using a ratiometric emission factor. The IC50 value was determined by fitting a four parameter model to the percent of control data.

[6] = Liver microsomal clearance, monkey; assay type: in vitro ADME; details: pH 7.4; Monkey liver microsomes; 1 mg/mL; 20 minutes
Procedure: as §1, §2, §3, §4

[7] = Liver microsomal clearance, rat; assay type: in vitro ADME; details: pH 7.4; Rat liver microsomes; 1 mg/mL; 20 minutes
Procedure: as §1, §2, §3, §4

Row | SMILES | CLhep predicted at 1 μM [1] [mL/min/kg] | in vivo/in vitro correction factor [2] | IV clearance (predicted) [2] | CLhep predicted at 1 μM [3] [mL/min/kg] | in vivo/in vitro correction factor [4] | clearance [4] [mL/min/kg] | pIC50 [5] | CLhep predicted at 1 μM [6] [mL/min/kg] | CLhep predicted at 1 μM [7] [mL/min/kg]
1 | COCCN1C[C@@H](NC(=O)Nc2c(C)c(-c3cnn(C)c3)nn2-c2ccccc2)[C@H](c2ccc(F)cc2)C1 [Compound 3, 1-(1′,4-dimethyl-1-phenyl-1H,1′H-[3,4′-bipyrazol]-5-yl)-3-((3S,4R)-4-(4-fluorophenyl)-1-(2-methoxyethyl)pyrrolidin-3-yl)urea] | 60 | 0.96 *** | 10 (predicted)** mL/min/kg | 23 | 0.84 | 38 | 8.77 | 32 | 23
2 | COCCN1C[C@@H](NC(=O)Nc2c(C)c(-c3cnc(C)nc3)nn2-c2ccccc2)[C@H](c2ccc(F)c(F)c2)C1 [Compound 2, 1-((3S,4R)-4-(3,4-difluorophenyl)-1-(2-methoxyethyl)pyrrolidin-3-yl)-3-(4-methyl-3-(2-methylpyrimidin-5-yl)-1-phenyl-1H-pyrazol-5-yl)urea] | 57 | 1.32 *** | 12 (predicted)** mL/min/kg | 26 | 2.11 | 18 | 8.82 | 38 | 22
3 | COCCN1C[C@@H](NC(=O)Nc2c(C)c(-c3cnc(C)nc3)nn2-c2ccccc2)[C@H](c2cccc(F)c2)C1 [Compound 1, 1-((3S,4R)-4-(3-fluorophenyl)-1-(2-methoxyethyl)pyrrolidin-3-yl)-3-(4-methyl-3-(2-methylpyrimidin-5-yl)-1-phenyl-1H-pyrazol-5-yl)urea] | 50 | 2.09 *** | 5 (predicted)** mL/min/kg | 24 | 1.65 | 20 | 8.96 | 33 | 22
